Results taken from the NIST ThermoML archive (doi:10.1021/je300945r).

F/C=C/C(F)(F)F [trans-1,3,3,3-tetrafluoropropene]
Conditions | mass density [kg/m3]
242.91 K, 56.6 kPa, Gas, isochoric method | 3.322
242.91 K, 56.7 kPa, Gas, isochoric method | 3.322
252.89 K, 59.4 kPa, Gas, isochoric method | 3.322
252.9 K, 59.4 kPa, Gas, isochoric method | 3.322
262.9 K, 62 kPa, Gas, isochoric method | 3.311
262.91 K, 61.9 kPa, Gas, isochoric method | 3.311
262.94 K, 139.4 kPa, Gas, isochoric method | 7.692
262.95 K, 139.4 kPa, Gas, isochoric method | 7.692
272.84 K, 64.4 kPa, Gas, isochoric method | 3.311
272.85 K, 64.4 kPa, Gas, isochoric method | 3.311
272.87 K, 145.5 kPa, Gas, isochoric method | 7.634
282.6 K, 151.4 kPa, Gas, isochoric method | 7.634
282.63 K, 66.9 kPa, Gas, isochoric method | 3.311
282.66 K, 238.8 kPa, Gas, isochoric method | 12.5
283.14 K, 1620 kPa, Liquid, Vibrating tube method | 1214.3
283.14 K, 2638 kPa, Liquid, Vibrating tube method | 1218.5
283.14 K, 3662 kPa, Liquid, Vibrating tube method | 1222.4
283.14 K, 5710 kPa, Liquid, Vibrating tube method | 1229.8
283.14 K, 6721 kPa, Liquid, Vibrating tube method | 1233.2
283.14 K, 7725 kPa, Liquid, Vibrating tube method | 1236.6
283.14 K, 11789 kPa, Liquid, Vibrating tube method | 1249.5
283.14 K, 12805 kPa, Liquid, Vibrating tube method | 1252.4
283.14 K, 15859 kPa, Liquid, Vibrating tube method | 1261.2
283.14 K, 16870 kPa, Liquid, Vibrating tube method | 1263.9
283.14 K, 18876 kPa, Liquid, Vibrating tube method | 1269.4
283.14 K, 20909 kPa, Liquid, Vibrating tube method | 1274.5
283.15 K, 619 kPa, Liquid, Vibrating tube method | 1210.5
283.15 K, 4689 kPa, Liquid, Vibrating tube method | 1226.1
283.15 K, 8745 kPa, Liquid, Vibrating tube method | 1240
283.15 K, 9760 kPa, Liquid, Vibrating tube method | 1243.2
283.15 K, 10765 kPa, Liquid, Vibrating tube method | 1246.5
283.15 K, 13827 kPa, Liquid, Vibrating tube method | 1255.7
283.15 K, 14841 kPa, Liquid, Vibrating tube method | 1258.4
283.15 K, 17875 kPa, Liquid, Vibrating tube method | 1266.7
283.15 K, 19891 kPa, Liquid, Vibrating tube method | 1272
283.15 K, 21921 kPa, Liquid, Vibrating tube method | 1277.1
283.15 K, 22932 kPa, Liquid, Vibrating tube method | 1279.6
283.15 K, 23948 kPa, Liquid, Vibrating tube method | 1281.9
283.15 K, 24959 kPa, Liquid, Vibrating tube method | 1284.4
283.15 K, 25966 kPa, Liquid, Vibrating tube method | 1286.7
283.15 K, 26982 kPa, Liquid, Vibrating tube method | 1289.1
283.15 K, 27984 kPa, Liquid, Vibrating tube method | 1291.3
283.15 K, 28987 kPa, Liquid, Vibrating tube method | 1293.4
283.15 K, 30001 kPa, Liquid, Vibrating tube method | 1295.7
283.15 K, 31009 kPa, Liquid, Vibrating tube method | 1297.8
283.15 K, 32017 kPa, Liquid, Vibrating tube method | 1300.1
283.15 K, 33020 kPa, Liquid, Vibrating tube method | 1302.1
283.15 K, 34022 kPa, Liquid, Vibrating tube method | 1304.2
292.54 K, 157.2 kPa, Gas, isochoric method | 7.634
292.56 K, 248.7 kPa, Gas, isochoric method | 12.5
292.56 K, 248.8 kPa, Gas, isochoric method | 12.5
292.76 K, 366.1 kPa, Gas, isochoric method | 19.231
292.83 K, 415.4 kPa, Gas, isochoric method | 22.222
293.14 K, 778 kPa, Liquid, Vibrating tube method | 1179.9
293.14 K, 1644 kPa, Liquid, Vibrating tube method | 1184.2
293.14 K, 2650 kPa, Liquid, Vibrating tube method | 1188.7
293.14 K, 4727 kPa, Liquid, Vibrating tube method | 1197.6
293.14 K, 5738 kPa, Liquid, Vibrating tube method | 1201.8
293.14 K, 6755 kPa, Liquid, Vibrating tube method | 1205.9
293.14 K, 7761 kPa, Liquid, Vibrating tube method | 1209.7
293.14 K, 8772 kPa, Liquid, Vibrating tube method | 1213.4
293.14 K, 10798 kPa, Liquid, Vibrating tube method | 1220.7
293.14 K, 12817 kPa, Liquid, Vibrating tube method | 1227.5
293.14 K, 13830 kPa, Liquid, Vibrating tube method | 1230.8
293.14 K, 15838 kPa, Liquid, Vibrating tube method | 1236.9
293.14 K, 16853 kPa, Liquid, Vibrating tube method | 1240.1
293.14 K, 17857 kPa, Liquid, Vibrating tube method | 1243
293.14 K, 20900 kPa, Liquid, Vibrating tube method | 1251.6
293.14 K, 21921 kPa, Liquid, Vibrating tube method | 1254.3
293.14 K, 22938 kPa, Liquid, Vibrating tube method | 1257.2
293.14 K, 23953 kPa, Liquid, Vibrating tube method | 1259.7
293.14 K, 24957 kPa, Liquid, Vibrating tube method | 1262.3
293.14 K, 31009 kPa, Liquid, Vibrating tube method | 1277.1
293.14 K, 32027 kPa, Liquid, Vibrating tube method | 1279.3
293.15 K, 69.4 kPa, Gas, isochoric method | 3.311
293.15 K, 3682 kPa, Liquid, Vibrating tube method | 1193.3
293.15 K, 9788 kPa, Liquid, Vibrating tube method | 1217.1
293.15 K, 11799 kPa, Liquid, Vibrating tube method | 1223.9
293.15 K, 14835 kPa, Liquid, Vibrating tube method | 1233.8
293.15 K, 18879 kPa, Liquid, Vibrating tube method | 1246.2
293.15 K, 19891 kPa, Liquid, Vibrating tube method | 1248.9
293.15 K, 25973 kPa, Liquid, Vibrating tube method | 1264.9
293.15 K, 26985 kPa, Liquid, Vibrating tube method | 1267.4
293.15 K, 27991 kPa, Liquid, Vibrating tube method | 1270
293.15 K, 28993 kPa, Liquid, Vibrating tube method | 1272.4
293.15 K, 30001 kPa, Liquid, Vibrating tube method | 1274.8
293.15 K, 33027 kPa, Liquid, Vibrating tube method | 1281.7
293.15 K, 34035 kPa, Liquid, Vibrating tube method | 1284
293.16 K, 69.4 kPa, Gas, isochoric method | 3.311
302.54 K, 258.5 kPa, Gas, isochoric method | 12.5
302.54 K, 258.6 kPa, Gas, isochoric method | 12.5
302.67 K, 71.8 kPa, Gas, isochoric method | 3.311
302.67 K, 162.7 kPa, Gas, isochoric method | 7.634
302.69 K, 162.7 kPa, Gas, isochoric method | 7.634
302.78 K, 381.8 kPa, Gas, isochoric method | 19.231
